From patent publication US10702527B2, “Combination therapy of transcription inhibitors and kinase inhibitors” (Dana-Farber Cancer Institute, Inc., priority 2015, dated 2020)
Entries after “also recorded” stand apart in the source; their conditions may differ.

Key:
[1] = test system: RT112 bladder carcinoma cells (FGFR3-dependent); assay: Colony formation assay in RT112 cells; assay type: cell-based, human
Text: Media (and drug) were replaced weekly.

[2] = test system: PC9 cells (EGFR-dependent NSCLC); assay: Colony formation assay in PC9 cells; assay type: cell-based; conditions: 4 weeks, compared to THZ1 (FIG. 55B)
HER-2 dependent models = conditions: cited from earlier work
PC9 cells = assay: Apoptosis/cell death analysis (Annexin V/PI flow cytometry) in PC9 cells; assay type: cell-based; conditions: 48 hours; erlotinib 1 μM; compared to PC9 cells with control RNA guide
Experimental: 100,000 cells were seeded in 6-well plates, allowed to adhere overnight, and then incubated with media containing vehicle or drug as indicated for 24 or 48 hours. Cell death was quantified using the Alexa Fluor 488 Annexin V/Dead Cell Apoptosis kit for flow cytometry (Invitrogen), according to the manufacturer's protocol. All conditions were assayed in triplicate. Data were acquired using a BD LSRFortessa X-20 (BD Biosciences), and analyzed in FlowJo.

[3] = test system: signaling pathways in PC9 cells; assay: Western blot / immunoblot of signaling pathways in PC9 cells; assay type: cell-based; conditions: 24 hours, erlotinib 1 μM, THZ1 100 nM, alone or combined
Experimental: Cells were lysed in RIPA buffer (Roche) containing protease inhibitors (Roche) and Phosphatase Inhibitor Cocktails I and II (CalBioChem). Protein concentrations were determined using a Bradford assay (Bio-Rad). Proteins were separated by SDS gel electrophoresis using NuPAGE 4-12% Bis-Tris gels (Life Technologies) in MOPS buffer. Resolved protein was transferred to nitrocellulose membranes, blocked in 10% milk and probed with primary antibodies recognizing EGFR (2232S), p-EGFR (2234S), FGFR3 (4574S), p-FGFR (3471S), HER2/ERBB2 (2165), p-ERBB2 (2243S), STAT1 (9172), p-STAT1 (9167), STAT3 (4904S), p-STAT3 (9145S), AKT (9272S), p-AKT (4060P), ERK (4695S), p-ERK (4370S), FRA1 (5281S), CDK12 (11973) (all from Cell Signaling Technology), CDK7 (sc-723, Santa Cruz), actin (A5441, Sigma-Aldrich) and vinculin (V9131, Sigma-Aldrich) in 5% milk or 3% bovine serum albumin as recommended by the manufacturer. After incubation with the appropriate secondary antibody (Pierce anti-mouse IgG/IgM (31444, Thermo Scientific) and anti-rabbit IgG (31460, Thermo Scientific)), blots were imaged on film.
Western blots were used to characterize the signaling pathways in selected cell lines. The assays were performed at 24 hours under the following conditions: untreated, treated with 1 μM erlotinib, treated with 100 nM THZ1, or treated with a combination of erlotinib and THZ1, in PC9 and RT112 cells. These doses were also used in the colony formation assays and the RNAseq and ChIPseq experiments. […] However, it could be blocking the activation of downstream STAT3 targets. […] FGFR is known to be a bypass mechanism in PC9, but this was not seen with THZ1 treatment or with the combination treatment. […] This is unexpected, given that THZ1 should block CDK7-mediated RNAPII phosphorylation. This may be due to the dose or the time point assayed.

IL-6 = IL-6 in PC9 cell culture supernatants (Luminex cytokine assay, ELISA); assay type: cell-based; conditions: PC9 cells; erlotinib 1 μM, THZ1 100 nM; 24 and 72 hours
Experimental: A Luminex Multiplex Custom Cytokine assay was used to assay cytokines in RT112 and PC9 cell culture supernatants treated with vehicle, 1 μM BGJ398 or erlotinib respectively, 100 nM THZ1, or THZ1 in combination with BGJ398 or erlotinib, at 24 and 72 hours. Cytokines assayed for were: CCL2/MCP-1, CCL5/RANTES, CXLC5, IL-1 alpha and beta, IL-2, IL-4, IL-5, IL-6, IL-8, IL-10, IL-17a, GM-CSF, TNF-alpha, VEGF, INF-gamma. IL-6 was also assayed in cell culture supernatants using the Quantikine IL-6 ELISA kit (D6050, R&D Systems) as per the manufacturer's protocol.

[4] = test system: H3K27Ac enhancer signal in PC9 cells; assay: H3K27Ac ChIP-Seq in PC9 cells; assay type: cell-based, human; conditions: seven days of treatment, vs DMSO
Experimental: RT112 and PC9 cells treated for seven days with vehicle, 1 μM BGJ398 and erlotinib (respectively), 100 nM THZ1, or BGJ398/erlotinib in combination with THZ1. H3K27Ac ChIP-Seq was performed using Abcam antibody (cat # AB4729, lot # GR183922-1) as previously described,^8 with minor modifications (cells were crosslinked for 20 min, Dynal magnetic beads (Sigma) were bound with 10 μg of the indicated antibody).
All ChIP-Seq data sets were aligned using bowtie 1.0.1 to build NCBI36/hg19 of the human genome with -p 4—best -k 2 -m 2—sam -1 40. Wiggle files for gene tracks were created using Macs 1.4.2 with options -w -S -space=50 to count reads in 50 bp bins.
Regions enriched in H3K27Ac were identified using SICER^51 with corresponding input DNA control, and parameters -t 1 (max 1 read per position), -w 200 (window size 200), -i 150 (fragment size), -g 200 (gap size 200; 1 window), -t 0.74 (interrogable genome fraction), -e 200 (e-value), -p 1e-9 (significance p value cutoff). […]
Density of H3K27Ac ChIP-Seq signal (FIG. 51F) was calculated using bamToGFF (github.com/BradnerLab/pipeline). Islands of H3K27Ac identified in RT112 BGJ398-treated cells or PC9 erlotinib-treated cells were treated as one bin (-m 1), reads were extended to be 200 bp (default) and the reads-per-million (-r) normalized density (-d) of reads was calculated therein.

[5] = test system: gene expression in PC9 cells; assay: RNA-Seq gene expression in PC9 cells
Experimental: RNA was isolated from untreated RT112 cells and RT112 cells treated with 1 μM BGJ398, 100 nM THZ1, or combination treatment with THZ1 plus BGJ398, and similarly, untreated PC9 cells and PC9 cells treated with 1 μM erlotinib, 100 nM THZ1, or THZ1 plus erlotinib. Both cell lines were harvested at two time-points: following one day or seven days of treatment. Cell number was determined and total RNA was isolated using the RNeasy micro kit (Qiagen). Ambion® ERCC RNA Spike-In Mix (Life technology) was added to total RNA. cDNA libraries were prepared using the NEBNext® Ultra™ RNA Library Prep Kit for Illumina (New England Biolabs) according to the manufacturer's instructions. Library integrity was assessed on an Agilent 2100 Bioanalyzer (Agilent). Sequencing was performed on the Hiseq 2000 platform (Illumina) to a minimum depth of 30 million reads per sample.
QC-passed reads were aligned to the human reference genome (hg19) using PRADA.^46 Transcript per million (TPM) values were determined using RSEM.^47 TPM values were normalized with the voom transformation.^48 Expression changes for each gene in treated cells compared to untreated controls was determined using the limma package^49 as log 2-transformed fold change and a multiple-testing adjusted p-value. Heatmap visualization was performed using R. Log 2-transformed fold changes were not scaled and were colored on a blue-red scale.
Differentially expressed genes (defined as log 2-fold change value greater than 1.5 or less than −1.5, and p-value less than 0.01) were input into Ingenuity Pathway Analysis (www.ingenuity.com), to identify a) enriched pathways, 2) upstream regulators, andd 3) downstream effectors. […] We considered an activation z-score of greater than [2] to be activated, and less than [−2] to be inhibited. Gene ontology term (GO-term) enrichment analysis was performed using the Database for Annotation, Visualization and Integrated Discovery (DAVID) v6.7 (david.abcc.ncifcrf.gov/).

SMILES	enhancement of sensitivity to BGJ398 (colony formation) ([1]; 4 weeks, compared to THZ1 (FIG. 55D))	colony formation, transcription inhibitor alone or in combination with BGJ398 ([1]; one week, 24-well plate (FIG. 35))	enhancement of sensitivity to erlotinib (colony formation) [2]	sensitivity to lapatinib (HER-2 dependent models)	sensitivity to erlotinib (cell death) of CDK7 and CDK12-deficient PC9 cells (PC9 cells)	FGFR activation [3]	p-STAT3 (STAT3 phosphorylation/activation) [3]	IL-6 levels in cell culture supernatants (IL-6)	H3K27Ac ChIP-Seq signal at enhancers [4]	gene expression (transcriptional programs) by RNAseq ([5]; erlotinib 1 μM, THZ1 100 nM, one or seven days)	gene expression of the top 200 up-regulated genes with erlotinib treatment ([5]; log2-normalized FPKM, two-tailed t-test)
Cc1sc2c(c1C)C(c1ccc(Cl)cc1)=N[C@@H](CC(=O)OC(C)(C)C)c1nnc(C)n1-2 [JQ1]	did enhance sensitivity to BGJ398 in RT112, although less so than THZ1	modest results, even in combination	did not enhance sensitivity to erlotinib	enhance sensitivity to lapatinib	–	–	–	–	–	–	–
C#Cc1cccc(Nc2ncnc3cc(OCCOC)c(OCCOC)cc23)c1 [erlotinib]	–	–	–	–	enhanced sensitivity to erlotinib	is activated; also recorded: activation of FGFR was also observed	increases	significantly increased	significant increase in H3K27Ac signal	transcriptionally distinct form the parental population; also recorded: up-regulated the expression of genes involved in pro-survival programs	significant increase in gene expression
